From article PMC8587999, “Assessment of the Activity of Decoquinate and Its Quinoline-O-Carbamate Derivatives against Toxoplasma gondii In Vitro and in Pregnant Mice Infected with T. gondii Oocysts” (Molecules, 2021)
Where two headings read alike, the source gives them in different places.

Legend:
[1] = test system: BAG1 (bradyzoite antigen 1) expression in T. gondii Me49; assay: Immunofluorescence staining for BAG1 expression in TgMe49-infected HFF; format: cell-based, Toxoplasma gondii; conditions: treatment for 48 h
Procedure: For immunofluorescence microscopy, 4 × 10^4 HFF were grown on glass coverslips for 24 h to form a sub-confluent monolayer and were exposed to 1.2 × 10^5 TgMe49 tachyzoites during 4 h at 37 °C and 5% CO2. The medium was replaced and supplemented with 20 nM DCQ and RMB060, or medium containing DMSO as control. Cultures infected with TgPgSp1 (low passage number) served as positive control for BAG1 (bradyzoite antigen 1) expression. Infected cells were cultured for 16 h, 24 h, and 48 h and fixed and labelled for immunofluorescence staining as described previously. A polyclonal rabbit anti-BAG1 antiserum was applied at 1:200 dilution, followed by a goat-anti-rabbit fluorescein-isothiocyanate conjugate (1:300), the monoclonal mouse anti-TgSAG1 antibody was diluted (1:100), followed by goat anti-mouse conjugated to tetramethylrhodamine-isothiocyanate at 1:300. Subsequently, samples were mounted in H-1200 Vectashield mounting medium (Vector Laboratories, Burlingame, CA, USA) containing 4,6-diamidino-2-phenylindole and were viewed on a Nikon E80i fluorescence microscope (Tokyo, Japan). Processing of images was performed using Openlab 5.5.2 (Improvision, PerkinElmer, Waltham, MA, USA) and the ImageJ software, version 1.53 m.

[2] = test system: T. gondii β-gal tachyzoites; assay: IC50 determination with T. gondii β-gal tachyzoites grown in HFF monolayers; format: cell-based, Toxoplasma gondii; conditions: for Selectivity Index: HFF vs T. gondii, compound applied prior to / concomitantly with infection; for IC50: Toxoplasma gondii, Tg-β-gal in HFF, [upper, lower limit of 95% CI], read-out: IC50 T. gondii (nM) [LS
Procedure: The efficacy of DCQ in vitro was determined using T. gondii β-gal constitutively expressing β-galactosidase grown in HFF monolayers. […] The low IC50 values and the low degree of cytotoxicity against HFF host cells in vitro encouraged us to examine the efficacy of oral treatment of CD1 mice infected with T. gondii oocysts with DCQ at 10 mg/kg/day for 5 days.
Due to the negative effects of treatment with DCQ, we investigated the efficacy in vitro of the three DCQ derivatives RMB054, RMB055 and RMB060 (Figure 1) in comparison to DCQ. Different concentrations of DCQ and the derivatives in DMSO were added to HFF either concomitantly with infection of T. gondii-β-gal tachyzoites, or 3 h after infection. […] The corresponding dose-response curves are shown in Supplementary Materials Figure S1. The viability of uninfected HFF was not impaired by the compounds up to concentrations of 5 µM (DCQ and RMB054) or 10 µM (RMB055, RMB060) (Table 1).
(§1) HFF cytotoxicity assessments and IC50 determinations using cultures of Tg-β-gal tachyzoites grown in HFF were carried out as described previously. IC50 values were calculated with the logit-log-transformation of the relative growth and subsequent regression analysis was done with the corresponding software tool contained in Microsoft Excel software package (Microsoft, Seattle, WA). For the long-term treatments, HFF grown in T25 culture flasks were infected with 5 × 10^5 TgMe49 tachyzoites, and after 4.5 h 0.5 μM DCQ, RMB054 or RMB060 were added. Infected cultures treated with the highest corresponding concentration of DMSO (0.5%) served as controls. Prolonged treatments for up to 24 days were carried out, with the addition of fresh medium containing the respective drug every 3–4 days. Cultures were inspected by light microscopy on a daily basis. On days 3, 6, 9, 13, 16, 20 and 24, the compound-containing medium was removed, and parasites were maintained without drug pressure until host cell lysis (plaque formation) was evident.

[3] = test system: human foreskin fibroblasts (HFF); assay: HFF cytotoxicity assessment; format: cell-based; conditions: for IC50: Homo sapiens, Fibroblast, uninfected HFF, no decline in viability over the concentration range
Procedure: as §1

[4] = compound added 3 h post-infection, LI] Compound Added 3 h Post-infection
[5] = compound added prior to / concomitantly with infection, LI] Compound Added Prior to Infection

Compound | Expression of the bradyzoite marker BAG1 [1] | Selectivity Index [2] | IC50 [2, 4] [nM] | IC50 [2, 5] [nM] | Concentration up to which viability of uninfected HFF was not impaired [3] [µM] | IC50 [3] [nM]
CCCCCCCCCCOc1cc2c(OC(=O)N3CCN(CC)C(=O)C3=O)c(C(=O)OCCOC)cnc2cc1OCC [RMB054] | not clearly detectable | >435 | 11.4 | 11.5 | 5 | > 5000
CCCCCCCCCCOc1cc2c(OC(=O)N3CCN(S(C)(=O)=O)C3=O)c(C(=O)OCCOC)cnc2cc1OCC [RMB055] |  | >50 | 227 | 200 | 10 | > 10000
